Where two headings read alike, the source gives them in different places.
Molecular target: T1, T7 RNA polymerase (Escherichia phage T7, UniProt P00573)
T1 construct: purchased Thermo Fisher Scientific
Assay type: biochemical
Source text: A DNA sequence was introduced into a modified pUC19 derived vector backbone to comprise a 5′-UTR with a ribozyme cleavage site (the HSD17B4 5′ UTR), a 3′-UTR, a histone-stem-loop structure and a stretch of adenine nucleotides (A100), at the 3′-terminal end. The obtained plasmid DNA was transformed and propagated in bacteria using common protocols and plasmid DNA was extracted, purified, and enzymatically linearized using a restriction enzyme. The obtained linearized plasmid DNA was used for RNA in vitro transcription as outlined next to obtain the mRNA with the sequence shown in SEQ ID NO: 1.
Linearized plasmid DNA template (50 μg/ml) was transcribed at 37° C. for 3-5 hours in 80 mM HEPES/KOH, pH 7.5, 24 mM MgCl2, 2 mM spermidine, 40 mM DTT, 5 U/ml pyrophosphatase (Thermo Fisher Scientific), 200 U/ml RiboLock RNase inhibitor (Thermo Fisher Scientific), 5000 U/ml T7 RNA polymerase (Thermo Fisher Scientific).
The non-modified and modified nucleotide mixture was sequence-optimized (herein referred to as sequence-optimized IVT-mix) preferably in accordance with a procedure as described in WO2015/188933. Example 1. In short, the sequence-optimized IVT-mix comprised the four ribonucleoside triphosphates (NTPs) GTP, ATP, CTP and (modified) UTP in a sequence optimized ratio, wherein the fraction of each of the four ribonucleoside triphosphates in the sequence-optimized IVT-mix corresponded to the fraction of the respective nucleotide in the mRNA molecule to be synthetized, a buffer, a DNA template, and an RNA polymerase. Accordingly, for mRNAs i) and ii) as set out above, the concentrations of the nucleotides were 0.42 mM ATP, 0.57 mM CTP, 0.28 mM UTP, and 0.5 mM GTP (all Thermo Fisher Scientific).
Following RNA in vitro transcription, linear DNA templates were removed by Pulmozyme (Ratiopharm) (2500 U/ml, 3.2 mM CaCl2, 30 min at 37° C.). The obtained mRNAs i) and ii) as well as the mRNAs used in example 3, Table Ex-6; example 4, Table Ex-7; and example 5, FIG. 5 were purified using RP-HPLC (PureMessenger®; according to WO2008/077592). The obtained mRNAs used in example 3, Table Ex-8; example 4, Table Ex-9; and example 5, FIG. 6, were purified using Monarch RNA cleanup kit or Qiagen RNeasy mini kit according to the protocol of the manufacturer and used for dsRNA determination, capping analysis and in vitro expression experiments (example 5).
The capping efficacy can be analyzed by an HPLC assay of a 5′ fragment of mRNAs obtained according to the protocol of example 2. Thus, the peaks obtained in such an HPLC assay are indicative of i) correctly capped mRNA, ii) capped mRNA lacking a single nucleotide G (which is a typical side product if T7 RNA-polymerase is used), iii) uncapped mRNA and iv) further products of unknown structure. 5′ fragments for this kind of analysis are typically 15 to 20 nucleotides in length.
In order to provide fragments of a length of 18 nucleotides (assuming that the Cap-nucleotide is present, the fragment is 18 nucleotides long; for uncapped mRNAs, the fragment is accordingly 17 nucleotides long) for HPLC analysis, the mRNAs i) and ii) obtained in example 2 were first cleaved at the above-mentioned 5′ ribozyme cleavage site using a ribozyme designed to cleave at the relevant position. The ribozyme reaction contained 150 μM of the respective mRNA, 150 μM of the ribozyme, 50 mM NaCl and 0.625 mM EDTA in a total reaction volume of 120 μL. For the annealing reaction, the mixture was incubated in a PCR cycler for 3 min at 95° C., followed by a cool down ramp of 0.1° C. per second to a final temperature of 25° C., with a final incubation of 10 min at 25° C. After addition of 30 μL of a 200 mM MgCl2 solution buffered with 250 mM TRIS/HCl (pH 7.5), the reaction mix was incubated at 25° C. for 1 h. The reaction was stopped by addition of 24 μL of a 250 mM EDTA solution. RNA-only and Ribozyme-only controls were prepared per RNA and ribozyme, respectively.

[1] = Table Ex-6, mRNA capped with named cap analog (2.0 mM cap, 0.5 mM GTP), RP-HPLC purified mRNA
[2] = Table Ex-8, mRNA capped with 15.23 mM cap0 analog, N1-Methyl-pseudouridine, purified with Monarch RNA cleanup kit or Qiagen RNeasy mini kit

T1 sequence (P00573 whole entry): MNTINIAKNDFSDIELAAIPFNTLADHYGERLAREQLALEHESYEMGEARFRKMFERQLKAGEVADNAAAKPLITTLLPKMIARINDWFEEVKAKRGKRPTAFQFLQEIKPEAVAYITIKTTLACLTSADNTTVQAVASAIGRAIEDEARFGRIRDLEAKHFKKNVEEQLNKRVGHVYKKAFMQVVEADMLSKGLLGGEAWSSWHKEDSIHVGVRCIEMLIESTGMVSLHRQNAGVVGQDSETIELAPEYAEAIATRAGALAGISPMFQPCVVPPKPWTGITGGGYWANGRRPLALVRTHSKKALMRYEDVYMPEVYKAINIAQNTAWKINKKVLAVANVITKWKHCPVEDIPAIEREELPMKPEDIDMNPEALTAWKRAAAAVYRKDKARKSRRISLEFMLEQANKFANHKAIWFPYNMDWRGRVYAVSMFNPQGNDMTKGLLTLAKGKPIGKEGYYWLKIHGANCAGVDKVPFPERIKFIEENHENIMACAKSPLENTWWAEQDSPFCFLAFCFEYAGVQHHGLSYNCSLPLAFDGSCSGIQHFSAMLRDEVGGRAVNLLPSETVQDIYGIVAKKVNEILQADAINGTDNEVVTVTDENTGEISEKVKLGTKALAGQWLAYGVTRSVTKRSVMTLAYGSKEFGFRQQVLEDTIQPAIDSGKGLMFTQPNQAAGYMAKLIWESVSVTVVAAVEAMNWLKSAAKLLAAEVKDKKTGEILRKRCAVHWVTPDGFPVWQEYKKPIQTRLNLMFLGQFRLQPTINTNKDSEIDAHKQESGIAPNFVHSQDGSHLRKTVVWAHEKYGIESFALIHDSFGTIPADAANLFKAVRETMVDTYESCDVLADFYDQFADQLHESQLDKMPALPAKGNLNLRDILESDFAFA

SMILES: C[n+]1cn(C2OC(COP(=O)(O)OP(=O)([O-])OP(=O)(O)OCC3OC(n4cnc5c(=O)[nH]c(N)nc54)C(O)C3O)C(O)C2O)c2nc(N)[nH]c(=O)c21 (stereo not drawn) [mCap, m7G(5′)ppp(5′)G, reference compound]
- Relative peak area Capped RNA minus G [1]: 8.6%
- Relative peak area Uncapped RNA [1]: 19.8%
- Relative peak area Unidentified peaks [1]: 10.1%
- Relative peak area Correctly capped RNA (Table Ex-6, mRNA capped with named cap analog (2.0 mM cap, 0.5 mM GTP), RP-HPLC purified mRNA, 5′ fragment, UV 260 nm): 61.5%
- Relative peak area Capped RNA minus G [2]: 12.2%
- Relative peak area Correctly capped RNA [2]: 63.3%
- Relative peak area Uncapped RNA [2]: 20.3%
- Relative peak area Unidentified peaks [2]: 4.2%

SMILES: C[n+]1cn(C[S+]([O-])CCCP(=O)(O)OP(=O)([O-])OP(=O)(O)OC[C@H]2O[C@@H](n3cnc4c(=O)[nH]c(N)nc43)[C@H](O)[C@@H]2O)c2nc(N)[nH]c(=O)c21 (stereo partly drawn) [Phosphonate Variant 2]
- Relative peak area Capped RNA minus G [2]: 6.3%
- Relative peak area Correctly capped RNA [2]: 76.9%
- Relative peak area Uncapped RNA [2]: 15.0%
- Relative peak area Unidentified peaks [2]: 1.8%

SMILES: C[n+]1cn(CCSCP(=O)(O)OP(=O)([O-])OP(=O)(O)OC[C@H]2O[C@@H](n3cnc4c(=O)[nH]c(N)nc43)[C@H](O)[C@@H]2O)c2nc(N)[nH]c(=O)c21 [Phosphonate Variant 10]
- Relative peak area Capped RNA minus G [2]: 23.4%
- Relative peak area Correctly capped RNA [2]: 63.0%
- Relative peak area Uncapped RNA [2]: 8.7%
- Relative peak area Unidentified peaks [2]: 4.9%

SMILES: C[n+]1cn(CCCOP(=O)(O)OP(=O)([O-])OP(=O)(O)OC[C@H]2O[C@@H](n3cnc4c(=O)[nH]c(N)nc43)[C@H](O)[C@@H]2O)c2nc(N)[nH]c(=O)c21 [Propylene Cap]
- Relative peak area Capped RNA minus G [2]: 21.6%
- Relative peak area Correctly capped RNA [2]: 64.7%
- Relative peak area Uncapped RNA [2]: 12.3%
- Relative peak area Unidentified peaks [2]: 1.4%

SMILES: C[n+]1cn(CC[S+]([O-])CCP(=O)(O)OP(=O)([O-])OP(=O)(O)OC[C@H]2O[C@@H](n3cnc4c(=O)[nH]c(N)nc43)[C@H](O)[C@@H]2O)c2nc(N)[nH]c(=O)c21 (stereo partly drawn) [Phosphonate Variant 5]
- Relative peak area Capped RNA minus G [2]: 4.3%
- Relative peak area Correctly capped RNA [2]: 77.1%
- Relative peak area Uncapped RNA [2]: 13.1%
- Relative peak area Unidentified peaks [2]: 5.5%

SMILES: C[n+]1cn(CCS(=O)(=O)CP(=O)(O)OP(=O)([O-])OP(=O)(O)OC[C@H]2O[C@@H](n3cnc4c(=O)[nH]c(N)nc43)[C@H](O)[C@@H]2O)c2nc(N)[nH]c(=O)c21 [Phosphonate Variant 12]
- Relative peak area Capped RNA minus G [2]: 8.6%
- Relative peak area Correctly capped RNA [2]: 75.5%
- Relative peak area Uncapped RNA [2]: 12.2%
- Relative peak area Unidentified peaks [2]: 3.7%

SMILES: C[n+]1cn(CCS(=O)(=O)CCP(=O)(O)OP(=O)([O-])OP(=O)(O)OC[C@H]2O[C@@H](n3cnc4c(=O)[nH]c(N)nc43)[C@H](O)[C@@H]2O)c2nc(N)[nH]c(=O)c21 [Phosphonate Variant 6]
- Relative peak area Capped RNA minus G [2]: 4.2%
- Relative peak area Correctly capped RNA [2]: 75.5%
- Relative peak area Uncapped RNA [2]: 14.9%
- Relative peak area Unidentified peaks [2]: 5.4%

SMILES: C[n+]1cn(CCCS(=O)(=O)CCP(=O)(O)OP(=O)([O-])OP(=O)(O)OC[C@H]2O[C@@H](n3cnc4c(=O)[nH]c(N)nc43)[C@H](O)[C@@H]2O)c2nc(N)[nH]c(=O)c21 [Phosphonate Variant 9]
- Relative peak area Capped RNA minus G [2]: 4.4%
- Relative peak area Correctly capped RNA [2]: 73.4%
- Relative peak area Uncapped RNA [2]: 15.7%
- Relative peak area Unidentified peaks [2]: 6.5%

From patent publication US20250002524A1, “CAP ANALOGS HAVING AN ACYCLIC LINKER TO THE GUANINE DERIVATIVE NUCLEOBASE” (CureVac SE, priority 2021, published 2025)
